Assay results reported in PubChem BioAssay AID1845200 (Molecular Pharmacology Branch, DTP, NCI, 2023).

Tested on: ASPS-1 complex tumor spheroids, viability
Assay: Anticancer human tumor ASPS-1 cell line growth inhibition;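 note: spheroids exposed to agents for 7 days after 3 days of growth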;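 for viability, T/C: 100% = DMSO vehicle treated spheroids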
Details: for IC50: curve of first compound; for viability, T/C: stronger effect = lower value
Excerpt: Multicellular complex tumor spheroid response to DNA repair inhibitors in combination with DNA-damaging drugs
This study explores the anticancer activities of DNA-damaging drugs and inhibitors of DNA damage repair, both as single agents and in combinations. Complex tumor spheroids comprised of malignant cells, endothelial cells and mesenchymal stem cells served as an in vitro model for human solid tumors. This model system incorporates physiologically relevant features and patient-derived or established malignant cell lines with clinically relevant genetic alterations from many tumor types. Twenty-six patient-derived or established malignant cell lines were evaluated representing sarcoma, melanoma, small cell lung cancer (SCLC), non-small cell lung cancer (NSCLC), as well as bladder, ovarian and pancreatic cancers. The concentration ranges selected for each drug and investigational agent were based upon clinically achievable concentrations if the clinical Cmax of the agent was known.
Compounds. The drugs and compounds olaparib (NSC753686), talazoparib (NSC767125), berzosertib (NSC777718), elimusertib (NSC800525), nedisertib (NSC802822), VX-984 (NSC792969), AZD-1390 (NSC803789), temozolomide (NSC362856), topotecan (NSC609699), trabectedin (NSC813783), staurosporine (NSC755774), and gemcitabine (NSC613327) were obtained from the National Cancer Institute (NCI) Developmental Therapeutics Program Chemical Repository. The FDA-approved anticancer drug set is available from the Developmental Therapeutics Program at https://dtp.cancer.gov/organization/dscb/obtaining/available_plates.htm. […] The stock solutions were prepared in dimethyl sulfoxide (DMSO, Sigma-Aldrich, St. Louis, MO, cat. D2650) at 400-fold the tested concentration and stored at -70 degrees C. Prior to their use, the stock solutions were diluted in fresh medium and the final DMSO concentration in the assay was 0.25% (v/v). All drugs and investigational agents were tested over a range starting from a high concentration at or near the clinical Cmax and decreasing in half-log increments. If the clinical Cmax for an agent had not been determined, the highest concentration tested was 10 microM.
Cell Lines. The patient-derived cancer cell (PDC) lines: 156681-154-R-J1-PDC, 283228-195-R-J1-PDC, 287954-098-R-J1-PDC, 292921-168-R-J2-PDC, 349418-098-R-PDC, 425362-245-T-J1-PDC, 556581-035-R-J1-PDC, and BL0293-F563-PDC were received from the NCI Patient-Derived Models Repository (PDMR, https://pdmr.cancer.gov). The established cell lines HS-SY-2 (RRID:CVCL_8719), MPNST, and SYO-1 (RRID:CVCL_7146) were obtained from the Sloan Kettering Institute. The alveolar soft parts sarcoma cell line ASPS-1 (RRID:CVCL_S738) was established at the NCI and grown from internal seed stocks. The following established cell lines were purchased from the American Type Culture Collection (ATCC, Manassas, VA): G-401 (ATCC, cat. CRL-1441, RRID:CVCL_0270), SW982 (ATCC, cat. HTB-93, RRID:CVCL_1734), VA-ES-BJ (ATCC, cat. CRL-2138, RRID:CVCL_1785), NCI-H719 (ATCC, cat. CRL-5837, RRID:CVCL_1582), NCI-H196 (ATCC, cat. CRL-5823, RRID:CVCL_1509), NCI-H841 (ATCC, cat. CRL-5845, RRID:CVCL_1595), NCI-H1618 (ATCC, cat. CRL-5879, RRID:CVCL_1480), NCI-H1876 (ATCC, cat. CRL-5902, RRID:CVCL_1503), DMS 114 (ATCC, cat. CRL-2066; RRID:CVCL_1174), NCI-H211 (ATCC, cat. CRL-5824; RRID:CVCL_1529), and SW 1271 (ATCC, cat. CRL-2177, RRID:CVCL_1716). The small cell lung cancer cell line COR-L88 was purchased from Sigma-Aldrich (cat. 92031917-1VL, RRID:CVCL_1141). The non-small cell lung cancer cell lines NCI-H226 (RRID:CVCL_1544) and NCI-H322M (RRID:CVCL_1557) were established at the NCI and grown from internal seed stocks. Pooled donor human umbilical vein endothelial cells (HUVEC, Lonza, cat. CC-2519) and human mesenchymal stem cells (hMSC, Lonza, cat. PT-2501) were purchased from Lonza (Walkersville, MD).
Cell Culture. All cells were maintained in an incubator at 37 degrees C and 5% CO2 with 95% humidity. […]

[1] = second compound 0.003 µM, first compound 0.00949 µM
[2] = second compound 0.003 µM, first compound 0.03 µM
[3] = second compound 0.003 µM, first compound 0.0949 µM
[4] = second compound 0.003 µM, first compound 0.3 µM
[5] = second compound 0.003 µM, first compound 0.949 µM
[6] = second compound 0.003 µM, first compound 3 µM
[7] = second compound 0.00949 µM, first compound 0.00949 µM
[8] = second compound 0.00949 µM, first compound 0.03 µM
[9] = second compound 0.00949 µM, first compound 0.0949 µM
[10] = second compound 0.00949 µM, first compound 0.3 µM
[11] = second compound 0.00949 µM, first compound 0.949 µM
[12] = second compound 0.00949 µM, first compound 3 µM
[13] = second compound 0.03 µM, first compound 0.00949 µM
[14] = second compound 0.03 µM, first compound 0.03 µM
[15] = second compound 0.03 µM, first compound 0.0949 µM
[16] = second compound 0.03 µM, first compound 0.3 µM
[17] = second compound 0.03 µM, first compound 0.949 µM
[18] = second compound 0.03 µM, first compound 3 µM
[19] = second compound 0.0949 µM, first compound 0.00949 µM
[20] = second compound 0.0949 µM, first compound 0.03 µM
[21] = second compound 0.0949 µM, first compound 0.0949 µM
[22] = second compound 0.0949 µM, first compound 0.3 µM
[23] = second compound 0.0949 µM, first compound 0.949 µM
[24] = second compound 0.0949 µM, first compound 3 µM
[25] = second compound 0.3 µM, first compound 0.00949 µM
[26] = second compound 0.3 µM, first compound 0.03 µM
[27] = second compound 0.3 µM, first compound 0.0949 µM
[28] = second compound 0.3 µM, first compound 0.3 µM
[29] = second compound 0.3 µM, first compound 0.949 µM
[30] = second compound 0.3 µM, first compound 3 µM

| SMILES | IC50 (second compound 0.003 µM) | IC50 (second compound 0.00949 µM) | IC50 (second compound 0.03 µM) | IC50 (second compound 0.0949 µM) | IC50 (second compound 0.3 µM) | viability, T/C [3] | viability, T/C [4] | viability, T/C [5] | viability, T/C [6] | viability, T/C [9] | viability, T/C [10] | viability, T/C [11] | viability, T/C [12] | viability, T/C [15] | viability, T/C [16] | viability, T/C [17] | viability, T/C [18] | viability, T/C [21] | viability, T/C [22] | viability, T/C [23] | further results |
| --- | --- | --- | --- | --- | --- | --- | --- | --- | --- | --- | --- | --- | --- | --- | --- | --- | --- | --- | --- | --- | --- |
| CNCc1ccc(-c2cc(-c3nc(-c4ccc(S(=O)(=O)C(C)C)cc4)cnc3N)on2)cc1 + CC[C@@]1(O)C(=O)OCc2c1cc1n(c2=O)Cc2cc3c(CN(C)C)c(O)ccc3nc2-1 | 0.478 µM | 0.412 µM | 0.256 µM | 0.0196 µM | < 0.00949 µM | 98.8% | 60.8% | 30.8% | 5.94% | 107% | 54.5% | 30.2% | 5.23% | 90.5% | 41.9% | 25.3% | 10.3% | 41.8% | 29% | 22.4% | viability, T/C [1]: 102%; viability, T/C [2]: 103%; viability, T/C [7]: 104%; viability, T/C [8]: 108%; viability, T/C [13]: 97.1%; viability, T/C [14]: 105%; viability, T/C [19]: 54.1%; viability, T/C [20]: 45.6%; viability, T/C [24]: 2.96%; viability, T/C [25]: 44.9%; viability, T/C [26]: 38.3%; viability, T/C [27]: 26.9%; viability, T/C [28]: 23.4%; viability, T/C [29]: 23.7%; viability, T/C [30]: 7.06% |
| Cn1ncnc1[C@H]1c2n[nH]c(=O)c3cc(F)cc(c23)N[C@@H]1c1ccc(F)cc1 + CC[C@@]1(O)C(=O)OCc2c1cc1n(c2=O)Cc2cc3c(CN(C)C)c(O)ccc3nc2-1 | > 3 µM | > 3 µM | 2.61 µM | < 0.00949 µM | < 0.00949 µM | 101% | 98.4% | 98.8% | 76.5% | 100% | 95.7% | 86.6% | 69.5% | 67.4% | 61.4% | 56.6% | 49% | 43.5% | 38.2% | 38% | viability, T/C [1]: 97.5%; viability, T/C [2]: 98.3%; viability, T/C [7]: 103%; viability, T/C [8]: 92%; viability, T/C [13]: 78.4%; viability, T/C [14]: 75.9%; viability, T/C [19]: 47%; viability, T/C [20]: 40.9%; viability, T/C [24]: 34.1%; viability, T/C [25]: 46.9%; viability, T/C [26]: 41.9%; viability, T/C [27]: 40%; viability, T/C [28]: 41.3%; viability, T/C [29]: 40.1%; viability, T/C [30]: 39% |
| O=C(c1cc(Cc2n[nH]c(=O)c3ccccc23)ccc1F)N1CCN(C(=O)C2CC2)CC1 + CC[C@@]1(O)C(=O)OCc2c1cc1n(c2=O)Cc2cc3c(CN(C)C)c(O)ccc3nc2-1 | > 30 µM | > 30 µM | > 30 µM | < 0.0949 µM | < 0.0949 µM | 114% | 107% | 101% | 105% | 102% | 106% | 103% | 105% | 84.9% | 88.8% | 90.3% | 77.4% | 45.8% | 50% | 49% | viability, T/C (second compound 0.003 µM, first compound 9.49 µM): 104%; viability, T/C (second compound 0.003 µM, first compound 30 µM): 97.3%; viability, T/C (second compound 0.00949 µM, first compound 9.49 µM): 101%; viability, T/C (second compound 0.00949 µM, first compound 30 µM): 93.5%; viability, T/C (second compound 0.03 µM, first compound 9.49 µM): 71.4%; viability, T/C (second compound 0.03 µM, first compound 30 µM): 66.1%; viability, T/C [24]: 48.6%; viability, T/C (second compound 0.0949 µM, first compound 9.49 µM): 40.1%; viability, T/C (second compound 0.0949 µM, first compound 30 µM): 49.7%; viability, T/C [27]: 49.1%; viability, T/C [28]: 45.4%; viability, T/C [29]: 43.1%; viability, T/C [30]: 44.2%; viability, T/C (second compound 0.3 µM, first compound 9.49 µM): 35.6%; viability, T/C (second compound 0.3 µM, first compound 30 µM): 42.2% |
